Counter-ions that a name gives are not always drawn.
Target: T1, recombinant IRAK-4 kinase (Homo sapiens, UniProt Q9NWZ3)
T1 construct: purchased Millipore, USA
T1 sequence (Q9NWZ3 1-460): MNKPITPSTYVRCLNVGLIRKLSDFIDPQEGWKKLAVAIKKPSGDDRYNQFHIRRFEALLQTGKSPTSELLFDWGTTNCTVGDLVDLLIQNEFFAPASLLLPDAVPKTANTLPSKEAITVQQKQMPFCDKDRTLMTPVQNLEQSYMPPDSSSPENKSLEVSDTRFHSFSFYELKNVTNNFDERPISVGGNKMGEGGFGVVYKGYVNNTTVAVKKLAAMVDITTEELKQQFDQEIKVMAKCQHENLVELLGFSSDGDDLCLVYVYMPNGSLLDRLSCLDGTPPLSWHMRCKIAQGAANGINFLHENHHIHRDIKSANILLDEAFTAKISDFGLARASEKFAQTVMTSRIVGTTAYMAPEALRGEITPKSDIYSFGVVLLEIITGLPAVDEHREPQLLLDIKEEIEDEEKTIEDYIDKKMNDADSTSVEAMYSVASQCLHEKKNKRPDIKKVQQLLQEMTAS
Experiment: IRAK-4 Biochemical Assay (TR-FRET)
Settings: 30 min pre-incubation, 100 nM Biotin Histone H3, 20 μM ATP, read-out: IC50 values for IRAK4 activity
Protocol: Compounds were tested for their potential to inhibit IRAK-4 enzyme in a TR-FRET assay using recombinant IRAK-4 kinase from Millipore, USA. The assay buffer was 50 mM Tris-HCl pH 7.5, 20 mM MgCl2, 1 mM EGTA, 2 mM DTT, 3 mM MnCl2 and 0.01% Tween 20.5 ng of IRAK-4 kinase was used for the assay. After pre-incubation of enzyme with test compound for 30 minutes at room temperature, a substrate mixture containing 100 nM Biotin Histone H3 (Millipore, USA) and 20 μM ATP (Sigma, USA) was added and the reaction was incubated for 30 min. Post incubation, the reaction was stopped by the addition of stop mix containing 40 mM EDTA, 1 nM of Europium-Anti-Phospho-Histone H3 (Ser10) antibody (Perkin Elmer, USA) and 20 nM SureLight Allophycocyanin-Streptavidin (Perkin Elmer, USA). The fluorescence emission at 615 nm and 665 nm were measured at an excitation of 340 nm and the percent inhibition was estimated from the ratio of the fluorescence intensities [(F665/F615)×10000]. The compounds were initially screened at 1 μM and 10 μM concentrations and potent compounds (>50% inhibition at 1 μM) were taken for dose response studies. The IC50 values were estimated by fitting the dose-response data to sigmoidal dose response (variable slope), curve fitting program using Graphpad Prism software Version 6.01.

Row | IC50 [nM] | SMILES
1 | 50 to 100 | Cn1cc2cc(NC(=O)c3cccc(N4CC[C@H](N)C4)n3)c(N3CCCCC3)cc2n1 [Example 33, (S)-6-(3-aminopyrrolidin-1-yl)-N-(2-methyl-6-(piperidin-1-yl)-2H-indazol-5-yl)picolinamide 2,2,2-trifluoroacetate]
2 | < 50 | Cn1cc2cc(NC(=O)c3cccc(N4CC[C@@H](O)C4)n3)c(N3CCCCC3)cc2n1 [Example 38, (R)-6-(3-hydroxypyrrolidin-1-yl)-N-(2-methyl-6-(piperidin-1-yl)-2H-indazol-5-yl)picolinamide]
3 | < 50 | Cn1cc2cc(NC(=O)c3cccc(N4CC[C@H](O)C4)n3)c(N3CCCCC3)cc2n1 [Example 39, (S)-6-(3-hydroxypyrrolidin-1-yl)-N-(2-methyl-6-(piperidin-1-yl)-2H-indazol-5-yl)picolinamide]
4 | < 50 | Cn1cc2cc(NC(=O)c3cccc(N4CCC(O)C4)n3)c(N3CCCCC3)cc2n1 (stereo not shown) [Example 40, 6-(3-hydroxypyrrolidin-1-yl)-N-(2-methyl-6-(piperidin-1-yl)-2H-indazol-5-yl)picolinamide]
5 | 50 to 100 | Cn1cc2cc(NC(=O)c3cccc(N4CC[C@@H](N)C4)n3)c(N3CCCCC3)cc2n1 [Example 42, (R)-6-(3-aminopyrrolidin-1-yl)-N-(2-methyl-6-(piperidin-1-yl)-2H-indazol-5-yl)picolinamide]
6 | < 50 | Cn1cc2cc(NC(=O)c3coc(N4CC[C@H](N)C4)n3)c(N3CCCCC3)cc2n1 [Example 44, (S)-2-(3-aminopyrrolidin-1-yl)-N-(2-methyl-6-(piperidin-1-yl)-2H-indazol-5-yl)oxazole-4-carboxamide]
7 | < 50 | Cn1cc2cc(NC(=O)c3cccc(N4CC[C@H](O)C4)n3)c(C3CC3)cc2n1 [Example 49, (S)—N-(6-cyclopropyl-2-methyl-2H-indazol-5-yl)-6-(3-hydroxypyrrolidin-1-yl)picolinamide]
8 | > 100 | Cn1ncc2cc(NC(=O)c3coc(N4CC[C@H](O)C4)n3)c(C3CC3)cc21 [Example 50, (S)—N-(6-cyclopropyl-1-methyl-1H-indazol-5-yl)-2-(3-hydroxypyrrolidin-1-yl)oxazole-4-carboxamide]
9 | < 50 | Cn1cc2cc(NC(=O)c3coc(N4CC[C@H](O)C4)n3)c(N3CCCCC3)cc2n1 [Example 52, (S)-2-(3-hydroxypyrrolidin-1-yl)-N-(2-methyl-6-(piperidin-1-yl)-2H-indazol-5-yl)oxazole-4-carboxamide]
10 | > 100 | Cn1cc2cc(NC(=O)c3coc(N4CC[C@H](N)C4)n3)c(C3CC3)cc2n1 [Example 54, (S)-2-(3-aminopyrrolidin-1-yl)-N-(6-cyclopropyl-2-methyl-2H-indazol-5-yl)oxazole-4-carboxamide]
11 | 50 to 100 | Cn1cc2cc(NC(=O)c3coc(N4CC[C@H](O)C4)n3)c(C3CC3)cc2n1 [Example 55, (S)—N-(6-cyclopropyl-2-methyl-2H-indazol-5-yl)-2-(3-hydroxypyrrolidin-1-yl)oxazole-4-carboxamide]
12 | < 50 | CC(O)CNc1cccc(C(=O)Nc2cc3cn(C)nc3cc2N2CCCCC2)n1 (stereo not shown) [Example 57, 6-((2-hydroxypropyl)amino)-N-(2-methyl-6-(piperidin-1-yl)-2H-indazol-5-yl)picolinamide]
13 | < 50 | Cc1cc(-c2nc(C(=O)Nc3cc4cn(C)nc4cc3N3CCC(O)CC3)co2)ccn1 [Example 58, N-(6-(4-hydroxypiperidin-1-yl)-2-methyl-2H-indazol-5-yl)-2-(2-methylpyridin-4-yl)oxazole-4-carboxamide]
14 | < 50 | Cc1cc(-c2nc(C(=O)Nc3cc4cn(C)nc4cc3N3CCC3)co2)ccn1 [Example 60, N-(6-(azetidin-1-yl)-2-methyl-2H-indazol-5-yl)-2-(2-methylpyridin-4-yl)oxazole-4-carboxamide]
15 | < 50 | Cc1cc(-c2nc(C(=O)Nc3cc4cn(C)nc4cc3N3CCCC3)co2)ccn1 [Example 63, N-(2-methyl-6-(pyrrolidin-1-yl)-2H-indazol-5-yl)-2-(2-methylpyridin-4-yl)oxazole-4-carboxamide]
16 | < 50 | Cc1cc(-c2nc(C(=O)Nc3cc4cn(C)nc4cc3N3CC[C@H](O)C3)co2)ccn1 [Example 64, (S)—N-(6-(3-hydroxypyrrolidin-1-yl)-2-methyl-2H-indazol-5-yl)-2-(2-methylpyridin-4-yl)oxazole-4-carboxamide]
17 | < 50 | Cc1cc(-c2nc(C(=O)Nc3cc4cn(C)nc4cc3N3CC[C@@H](O)C3)co2)ccn1 [Example 65, (R)—N-(6-(3-hydroxypyrrolidin-1-yl)-2-methyl-2H-indazol-5-yl)-2-(2-methylpyridin-4-yl)oxazole-4-carboxamide]

More lines, now with the values behind:

Row | SMILES | IC50 [nM]
18 | C[C@H](O)Cn1cc(-c2cccc(C(=O)Nc3cc4cn(C)nc4cc3N3CCCCC3)n2)cn1 [Example 34, (S)-6-(1-(2-hydroxypropyl)-1H-pyrazol-4-yl)-N-(2-methyl-6-(piperidin-1-yl)-2H-indazol-5-yl)picolinamide] | < 50
19 | Cc1cc(-c2nc(C(=O)Nc3cc4cnn(C5CC5)c4cc3C3CC3)co2)ccn1 [Example 36, N-(1,6-dicyclopropyl-1H-indazol-5-yl)-2-(2-methylpyridin-4-yl)oxazole-4-carboxamide hydrochloride] | 50 to 100
20 | Cn1ncc2cc(NC(=O)c3cccc(N4CC[C@H](O)C4)n3)c(C3CC3)cc21 [Example 37, (S)—N-(6-cyclopropyl-1-methyl-1H-indazol-5-yl)-6-(3-hydroxypyrrolidin-1-yl)picolinamide] | > 100
21 | C[C@@H](O)Cn1cc(-c2cccc(C(=O)Nc3cc4cn(C)nc4cc3N3CCCCC3)n2)cn1 [Example 43, (R)-6-(1-(2-hydroxypropyl)-1H-pyrazol-4-yl)-N-(2-methyl-6-(piperidin-1-yl)-2H-indazol-5-yl)picolinamide] | < 50
22 | Cc1cc(-c2nc(C(=O)Nc3cc4cnn(C)c4cc3C3CC3)co2)ccn1 [Example 45, N-(6-cyclopropyl-1-methyl-1H-indazol-5-yl)-2-(2-methylpyridin-4-yl)oxazole-4-carboxamide] | < 50
23 | C[C@H](O)Cn1cc(-c2cccc(C(=O)Nc3cc4cnn(C)c4cc3C3CC3)n2)cn1 [Example 46, (S)—N-(6-cyclopropyl-1-methyl-1H-indazol-5-yl)-6-(1-(2-hydroxypropyl)-1H-pyrazol-4-yl)picolinamide] | 50 to 100
24 | C[C@H](O)Cn1cc(-c2cccc(C(=O)Nc3cc4cn(C)nc4cc3C3CC3)n2)cn1 [Example 47, (S)—N-(6-cyclopropyl-2-methyl-2H-indazol-5-yl)-6-(1-(2-hydroxypropyl)-1H-pyrazol-4-yl)picolinamide] | < 50
25 | Cn1cc2cc(NC(=O)c3cccc(N4CC[C@H](N)C4)n3)c(C3CC3)cc2n1 [Example 48, (S)-6-(3-aminopyrrolidin-1-yl)-N-(6-cyclopropyl-2-methyl-2H-indazol-5-yl)picolinamide] | > 100
26 | Cn1ncc2cc(NC(=O)c3coc(N4CC[C@H](N)C4)n3)c(C3CC3)cc21 [Example 51, (S)-2-(3-aminopyrrolidin-1-yl)-N-(6-cyclopropyl-1-methyl-1H-indazol-5-yl)oxazole-4-carboxamide] | > 100
27 | C[C@H](O)Cn1cc(-c2nc(C(=O)Nc3cc4cnn(C)c4cc3C3CC3)co2)cn1 [Example 53, (S)—N-(6-cyclopropyl-1-methyl-1H-indazol-5-yl)-2-(1-(2-hydroxypropyl)-1H-pyrazol-4-yl)oxazole-4-carboxamide] | > 100
28 | Cc1cc(-c2nc(C(=O)Nc3cc4cnn(C)c4cc3N3CCC3)co2)ccn1 [Example 59, N-(6-(azetidin-1-yl)-1-methyl-1H-indazol-5-yl)-2-(2-methylpyridin-4-yl)oxazole-4-carboxamide] | > 100
29 | Cc1cc(-c2nc(C(=O)Nc3cc4cn(C)nc4cc3N3CC(O)C3)co2)ccn1 [Example 61, N-(6-(3-hydroxyazetidin-1-yl)-2-methyl-2H-indazol-5-yl)-2-(2-methylpyridin-4-yl)oxazole-4-carboxamide] | < 50
30 | Cc1cc(-c2nc(C(=O)Nc3cc4cnn(C)c4cc3N3CCCC3)co2)ccn1 [Example 62, N-(1-methyl-6-(pyrrolidin-1-yl)-1H-indazol-5-yl)-2-(2-methylpyridin-4-yl)oxazole-4-carboxamide] | < 50
31 | Cc1cc(-c2ccc(C(=O)Nc3cc4cn(C)nc4cc3N3CCCCC3)o2)ccn1 [Example 66, N-(2-methyl-6-(piperidin-1-yl)-2H-indazol-5-yl)-5-(2-methylpyridin-4-yl)furan-2-carboxamide] | < 50

From US10160753B2, “Indazole compounds as IRAK4 inhibitors” (Aurigene Discovery Technologies Limited, priority 2014, dated 2018)
